Reference: patent US8901165B2, “Alkoxylated glycerol acetals and their derivatives” (Cognis IP Management GmbH, priority 2009, dated 2014)

Legend:
[1] = Dynamic and quasi-static surface tension, tensiometer SITA science line t60; format: physicochemical; settings: for Surface Tension at 0.1 Hz: bubble frequency 0.1 Hz (quasi-static); for Surface Tension at 10 Hz: bubble frequency 10 Hz (dynamic)
Description: Quasi-Static or equilibrium surface tension at an air-liquid interface can be determined by the Du Noüy ring method, the Wilhelmy plate or the like. […] To avoid such problems, a dynamic method is used but the frequency is reduced to 0.1 Hz or less, thus close enough to equilibrium conditions. […] The products therefore fulfill the complex profile as explained above perfectly.
(§1) Foam properties and surface tension of various alkoxylated glycerol acetals were compared with data obtained from conventional fatty alcohol alkoxylates at 0.1 and 0.25% b.w. concentration, respectively. Foam potential was tested with SITA foam tester R-2000, available from SITA Messtechnik GmbH, Gostritzer Str. 61-63, 01217 Dresden, Germany. Dynamic surface tension was determined with the tensiometer SITA science line t60, ibid.

[2] = Foam potential, SITA foam tester R-2000; format: physicochemical; settings: 0.1% aqueous solution/dispersion
Description: as §1

[3] = 0.25% aqueous solution/dispersion
[4] = 0.1% aqueous solution/dispersion

Row | Surface Tension at 0.1 Hz [1, 3] [mN/m] | Surface Tension at 10 Hz [1, 3] [mN/m] | Foam after 1 min [2] [mL] | Foam after 5 min [2] [mL] | Surface Tension at 0.1 Hz [1, 4] [mN/m] | Surface Tension at 10 Hz [1, 4] [mN/m] | Substance
1 | 29 | 36 |  |  |  |  | iso-nonyl glycerol acetal+3PO+3EO [Example 13]
2 | 26 | 33 |  |  |  |  | Decanol + 5EO [Example C4, reference compound]
3 |  |  | 120 | 110 | 31 | 50 | n-decyl glycerol acetal+4PO+4EO [Example 3]
4 |  |  | 190 | 170 | 26 | 40 | Decanol + 5EO [Example C2, reference compound]
5 | 27 | 34 |  |  |  |  | Isodecanol + 6EO [Example C3, reference compound]
6 | 32 | 39 |  |  |  |  | n-octyl glycerol acetal+4PO+4EO [Example 9]
7 | 31 | 44 |  |  |  |  | n-decyl glycerol acetal+4PO+4EO [Example 11]
8 |  |  | 100 | 80 | 30 | 52 | n-decyl glycerol acetal+4PO+4EO [Example 2]
9 | 32 | 38 |  |  |  |  | n-decyl glycerol acetal+4PO+4EO [Example 10]
10 |  |  | 30 | 25 | 32 | 44 | n-octyl glycerol acetal+4PO+4EO [Example 1]
11 |  |  | 225 | 210 | 27 | 40 | Isodecanol + 6EO [Example C1, reference compound]
12 |  |  | 0 | 0 | 31 | 43 | iso-nonyl glycerol acetal+3PO+3EO [Example 5]
